Data from patent US20230357292A1, “MULTI-COORDINATE GOLD-PHOSPHINE COMPOUNDS AND METHOD OF USE” (University of Kentucky Research Foundation, priority 2020, published 2023).

Tests used:
[1] = tested on: A2780 (ovarian); conditions: A2780 (ovarian), 4,000 cells/well, treated 72 h, mean ± SD (n = 3)
Experimental: (§1) All cell lines (OVCAR8, A2780, H460, and MDA-MB-231) were cultivated in RPMI or DMEM supplemented with 10% FBS, 1% penicillin/streptomycin, and 1% amphotericin. All cells were grown at 310K in a humidified atmosphere containing 5% CO2.
(§2) Various established human ovarian, lung, and breast cancer cell lines were seeded in 96-well plates (4000 cells/well) and were incubated with RPMI 1640 or DMEM (100 μL) supplemented with 10% FBS, 1% penicillin/streptomycin, and 1% amphotericin for 24 h and at 37° C. They were then treated with AuPhos compounds at increasing concentrations for 72 h from stock solutions following serial dilutions, in which AuPhos stock solutions were prepared in DMSO/media mixture (% v/v=20:80). Thereafter, cellular viability was assessed via the established crystal violet colorimetric assay. In brief, cells were fixed with 50 μL of a 1% glutaraldehyde solution and placed in an incubator (37° C., 5% CO2) for 1 hour. The plates were washed with water by running them under a gentle flow of tap water. The plates were air-dried, and crystal violet reagent was added to each well and allowed to incubate at room temperature for 20 min. The plates were washed with water and dried again. Methanol (200 μL/well) was added to each well, and the measurements of absorbance were subsequently performed using a Biotek Synergy H1 Plate Reader at 570 nm (peak absorbance).

[2] = tested on: H460 (lung); conditions: H460 (lung), 4,000 cells/well, treated 72 h, mean ± SD (n = 3)
Experimental: as §1, §2

[3] = tested on: OVCAR8 (ovarian); conditions: OVCAR8 (ovarian), 4,000 cells/well, treated 72 h, mean ± SD (n = 3)
Experimental: as §1, §2

`[Cl-].[Cl][Au-]1([c]2ccccc2-c2ccccn2)[P+](c2ccccc2)(c2ccccc2)c2ccccc2[P+]1(c1ccccc1)c1ccccc1` [AuPhos-89, (2-phenylpyridine)[1,2-Bis(diphenylphosphino)benzene]gold(III) Dichloride] gave an IC50 [1] of 340 ± 70 nM, an IC50 [2] of 720 ± 160 nM and an IC50 [3] of 1160 ± 40 nM.
